Reference: the NIST ThermoML archive (doi:10.1016/j.jct.2012.11.032)
Where “and” joins values, the source holds several entries; their conditions need not be identical. Identical values can stand only once. Numbers after ± are expanded uncertainties.

How the values were obtained:
[1] = xn = mol fraction of the nth substance listed; details: 101 kPa, Liquid, x2 = 0; for mass density: Vibrating tube method; for speed of sound: Sing-around technique in a fixed-path interferometer
[2] = 101 kPa, Liquid, Vibrating tube method

Row | mass density ([1]; 283 K) | mass density ([1]; 288 K) | mass density ([1]; 293 K) | mass density ([1]; 303 K) | mass density ([1]; 308 K) | speed of sound ([1]; 313 K) | mass density ([1]; 313 K) | mass density ([2]; 288 K) | mass density ([2]; 293 K) | mass density ([2]; 303 K) | SMILES | mass density ([2]; 283 K) | mass density ([2]; 308 K) | mass density ([2]; 313 K)
1 | 999.754 ± 0.1 kg/m3 | 999.166 ± 0.1 kg/m3 | 998.283 ± 0.1 kg/m3 | 995.75 ± 0.1 kg/m3 | 994.144 ± 0.1 kg/m3 | 1529 ± 1.2 m/s | 992.33 ± 0.1 kg/m3 | – | – | – | O [water] + CCCCCCCC[n+]1ccn(C)c1.[Cl-] | – | – | –
2 | 999.719 ± 0.1 kg/m3 | – | – | – | 994.091 ± 0.1 kg/m3 | 1529 ± 1.2 m/s | 992.27 ± 0.1 kg/m3 | – | – | – | O [water] + CCCCCCCCCCCC[n+]1ccn(C)c1.[Cl-] | – | – | –
3 | 999.713 ± 0.1 kg/m3 | – | – | – | 994.099 ± 0.1 kg/m3 | 1529 ± 1.2 m/s | – | – | – | – | O [water] + CCCCCCCCCCn1cc[n+](C)c1.[Cl-] | – | – | –
4 | – | – | – | – | – | – | – | 999.166 ± 0.1 kg/m3 | 998.283 ± 0.1 kg/m3 | 995.75 ± 0.1 kg/m3 | O [water] | 999.754 ± 0.1 kg/m3 and 999.719 ± 0.1 kg/m3 and 999.713 ± 0.1 kg/m3 | 994.099 ± 0.1 kg/m3 and 994.091 ± 0.1 kg/m3 and 994.144 ± 0.1 kg/m3 | 992.27 ± 0.11 kg/m3 and 992.33 ± 0.1 kg/m3
